Assay [1] has as its target T1, BK channels (Oryctolagus cuniculus, UniProt Q9BG98).
T1 construct: wherein the native BK channels were more sensitive to Ca^2+; from tissue
Description: Single channel recordings, inside-out patch clamp, voltage ramps, isolated smooth muscle cells of the rabbit bladder. It counts as cell-based. As to conditions: for effect on BK channel activity, in words (SAR discussion based on V1/2 data): inside out patches on rabbit smooth muscle cells. Here is the method: All experiments were approved by the Dundalk Institute of Technology Animal Care and Use Committee. […] The urinary bladder and most proximal 1.5 cm of the urethra was removed and placed in Krebs solution. Strips of bladder tissue, 0.5 cm in width were dissected, cut into 1 mm^3 pieces and stored in Ca^2+-free Hanks' solution for 30 min prior to cell dispersal. Tissue pieces were incubated in dispersal medium containing (per 5 ml) of Ca^2+-free Hanks' solution: 15 mg collagenase (Sigma type 1A), 1 mg protease (Sigma type XXIV), 10 mg bovine serum albumin (Sigma) and 10 mg trypsin inhibitor (Sigma) for 10-15 min at 37° C. Tissue was then transferred to Ca^2+-free Hanks' solution and stirred for a further 10-15 min to release single smooth muscle cells. These were plated in Petri dishes containing 100 μM Ca^2+ Hanks' solution and stored at 4° C. for use within 8 h. During experiments, the dish containing the cells was continuously perfused with Hanks' solution at 36±1° C. Additionally the cell under study was continuously superfused by means of a custom built close delivery system with a pipette of tip diameter 200 μm placed approximately 300 μm from the cell. The high K^+ solution in the close delivery system could be switched to a drug-containing solution with a dead space time of less than 5 s.
For whole cell recordings pipettes were pulled from borosilicate glass capillary tubing (1.5 mm outer diameter, 1.17 mm inner diameter; Clark Medical Instruments) to a tip of diameter approximately 1-1.5 μm and resistance of 2-4 Mohms. For single channel recordings, pipettes were pulled from borosilicate glass capillary tubing (1.5 mm outer diameter, 0.8 mm inner diameter; Clark Medical Instruments) and fire polished before use. Voltage clamp commands were delivered via an Axopatch 1D or Axon 200B patch clamp amplifiers (Axon Instruments) and membrane currents were recorded by a 12 bit AD/DA converter (Axodata 1200 or Labmaster, Scientific Solutions) interfaced to an Intel computer running pCLAMP software.
All values in (mM): KCl, 140. Glucose, 10, EGTA 1 and HEPES, 10. For free Ca^2+ greater than 300 nM: All values in (mM): KCl, 140. Glucose, 10, H-EDTA 1 and HEPES, 10. The same solution composition is used in the bath as in the patch pipette for these experiments except that the pipette solution contained 100 nM Ca^2+.
In single channel experiments voltage commands were applied using pClamp ramped potentials. This allowed more efficient measurement of slope conductance and channel activation than conventional step depolarisations. Activation curves were calculated by averaging current responses to 15 potential ramps and dividing each data point of the averaged current by the single channel amplitude at that holding potential, after leakage current correction. […] This analysis provides a continuous recording of the number of open channels multiplied by the open probability (NPo) over the entire voltage range. To obtain values for the steepness of the voltage-dependent activation and half-maximal activation voltage, activation curves were fitted with Boltzman functions of the form: NPo=n/{1+exp[−K(V−V1/2)]} where N is the number of channels in the patch, n is the maximal NPo level, K^−1 is the steepness of the voltage-dependent activation (change in potential necessary to cause an e-fold increase in activation) and V1/2 is the voltage at which there is half-maximal activation. Again, all of the experiments were carried out at 36±1° C.
The patches were held at a potential of −100 mV and voltage ramps were then applied from −100 mV up to +100 mV over 2 s.
Patches were held at −100 mV and ramped through to +100 mV and each sweep was repeated 15 times. The same protocol was repeated after the patch was incubated in 1 μM Ca^2+.

Assay [2] has as its target T1, BK channels. Description: Perforated patch whole cell patch clamp, outward BK current in isolated smooth muscle cells. It counts as cell-based, rabbit. The following applies: 10 μM; steps from −80 mV to +50 mV; holding −60 mV. In general terms: The patch-clamp technique gives a direct electrical read-out from membranes.
Description: The cell membrane was perforated using the antibiotic amphotericin B (600 μg·ml^−1).
Standard Hank's solution is used to bathe the cells in these experiments. Isolated smooth muscle cells from rabbit urethra we held at −60 mV. The test protocol involved stepping from −60 mV to −80 mV for 500 msecs, and then stepping the voltage up in +10 mV increments to +50 mV before returning to the holding potential of −60 mV.
The test system of the next assay is L-type calcium channel. As to the kind of experiment: Inward L-type calcium current, perforated patch clamp with Cs+ pipette solution, isolated smooth muscle cells of the rabbit bladder. The following applies: held at −60 mV, stepped to 0 mV for 500 ms. The class given is cell-based. The text has this:
Using methods described above herein, the patch pipette solution was altered to allow for measurement of inward L-type calcium currents which although present in earlier studies are not visible due to the overwhelming size of the outward BK current. By replacing K^+ with Cs^+ ions, the outward current is now blocked and a prominent inward current carried by Calcium is present. This is the L-type calcium ion channel currents allowing calcium into the cells.
All values in (mM): CsCl, 132.96. MgCl2.6H20, 1. EGTA, 0.5 and HEPES, 10.
With reference to FIG. 5, isolated smooth muscle cells from the rabbit bladder were held at −60 mV and stepped to 0 mV for 500 ms. Pipette solutions contained Cs^+ to block outward K^+ currents.

The target in a further assay is BK channel (Homo sapiens, UniProt Q12791). The following applies: applied to the inside of the membrane; cited from earlier work.
Where [3] appears, read: Table 2, 10 μM compound, inside-out patch.

The values that follow come from patent US9877940B2, “Anthraquinone compounds and their uses” (DUNDALK INSTITUTE OF TECHNOLOGY, priority 2010, dated 2018).

T1 sequence (Q9BG98 whole entry): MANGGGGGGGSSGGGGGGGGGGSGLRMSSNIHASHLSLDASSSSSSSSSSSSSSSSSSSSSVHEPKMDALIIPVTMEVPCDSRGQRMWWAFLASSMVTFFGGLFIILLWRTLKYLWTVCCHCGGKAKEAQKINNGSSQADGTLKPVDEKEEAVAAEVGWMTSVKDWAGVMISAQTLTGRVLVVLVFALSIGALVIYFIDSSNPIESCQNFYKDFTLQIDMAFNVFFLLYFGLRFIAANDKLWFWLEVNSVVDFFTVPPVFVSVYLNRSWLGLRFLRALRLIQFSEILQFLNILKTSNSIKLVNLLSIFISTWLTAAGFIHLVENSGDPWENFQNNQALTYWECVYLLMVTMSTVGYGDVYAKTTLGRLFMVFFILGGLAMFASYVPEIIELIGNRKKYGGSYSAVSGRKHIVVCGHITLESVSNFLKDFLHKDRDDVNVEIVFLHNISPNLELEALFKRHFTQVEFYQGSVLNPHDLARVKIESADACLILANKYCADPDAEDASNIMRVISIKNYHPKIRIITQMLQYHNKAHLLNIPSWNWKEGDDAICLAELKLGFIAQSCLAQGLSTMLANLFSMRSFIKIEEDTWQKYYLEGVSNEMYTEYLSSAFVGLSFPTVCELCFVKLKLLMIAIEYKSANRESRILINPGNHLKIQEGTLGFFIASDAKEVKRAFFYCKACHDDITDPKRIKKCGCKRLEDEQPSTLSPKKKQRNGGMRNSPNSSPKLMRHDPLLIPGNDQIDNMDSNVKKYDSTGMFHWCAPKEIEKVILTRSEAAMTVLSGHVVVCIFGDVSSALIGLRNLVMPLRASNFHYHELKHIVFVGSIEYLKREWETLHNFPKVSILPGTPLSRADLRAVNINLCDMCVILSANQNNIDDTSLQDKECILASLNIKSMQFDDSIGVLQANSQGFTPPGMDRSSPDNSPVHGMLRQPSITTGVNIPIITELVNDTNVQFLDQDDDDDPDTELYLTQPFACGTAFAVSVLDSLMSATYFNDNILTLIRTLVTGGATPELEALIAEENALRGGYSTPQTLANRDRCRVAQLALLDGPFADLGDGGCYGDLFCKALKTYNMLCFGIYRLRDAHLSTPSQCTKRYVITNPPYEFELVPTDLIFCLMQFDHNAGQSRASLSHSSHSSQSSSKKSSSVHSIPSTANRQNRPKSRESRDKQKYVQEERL
BK channel, sequence (Q12791 whole entry, species assumed): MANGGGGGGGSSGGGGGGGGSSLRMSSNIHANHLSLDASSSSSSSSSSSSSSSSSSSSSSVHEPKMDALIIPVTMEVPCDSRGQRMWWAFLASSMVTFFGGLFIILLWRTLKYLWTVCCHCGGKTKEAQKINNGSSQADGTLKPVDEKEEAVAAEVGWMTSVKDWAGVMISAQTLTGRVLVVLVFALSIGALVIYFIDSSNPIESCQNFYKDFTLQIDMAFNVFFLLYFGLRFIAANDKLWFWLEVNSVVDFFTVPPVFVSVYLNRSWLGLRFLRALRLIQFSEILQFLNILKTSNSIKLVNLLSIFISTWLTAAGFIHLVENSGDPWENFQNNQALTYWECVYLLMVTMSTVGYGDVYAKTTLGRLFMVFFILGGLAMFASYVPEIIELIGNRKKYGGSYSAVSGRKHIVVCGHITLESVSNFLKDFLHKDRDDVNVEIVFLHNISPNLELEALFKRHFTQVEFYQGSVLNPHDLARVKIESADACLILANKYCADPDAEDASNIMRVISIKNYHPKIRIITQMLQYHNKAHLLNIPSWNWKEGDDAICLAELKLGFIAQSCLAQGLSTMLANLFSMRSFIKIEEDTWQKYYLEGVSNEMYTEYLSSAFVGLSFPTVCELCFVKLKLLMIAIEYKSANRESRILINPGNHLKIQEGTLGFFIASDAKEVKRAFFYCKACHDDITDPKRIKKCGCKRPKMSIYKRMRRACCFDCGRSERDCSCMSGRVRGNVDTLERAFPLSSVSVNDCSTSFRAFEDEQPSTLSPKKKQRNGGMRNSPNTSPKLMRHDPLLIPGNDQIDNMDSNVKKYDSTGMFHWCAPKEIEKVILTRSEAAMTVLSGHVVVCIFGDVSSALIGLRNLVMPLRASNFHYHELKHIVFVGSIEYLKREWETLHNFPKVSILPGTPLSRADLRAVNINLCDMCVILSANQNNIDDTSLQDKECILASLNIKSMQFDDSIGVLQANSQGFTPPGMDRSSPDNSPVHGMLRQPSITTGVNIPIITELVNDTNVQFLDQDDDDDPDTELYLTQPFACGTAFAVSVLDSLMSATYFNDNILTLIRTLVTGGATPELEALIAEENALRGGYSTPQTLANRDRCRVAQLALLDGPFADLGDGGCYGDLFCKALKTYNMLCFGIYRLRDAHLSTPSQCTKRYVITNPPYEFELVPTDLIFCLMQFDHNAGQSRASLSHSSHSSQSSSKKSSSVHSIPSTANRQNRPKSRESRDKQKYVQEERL
BK channel, sequence (Q16558 whole entry partner, species assumed): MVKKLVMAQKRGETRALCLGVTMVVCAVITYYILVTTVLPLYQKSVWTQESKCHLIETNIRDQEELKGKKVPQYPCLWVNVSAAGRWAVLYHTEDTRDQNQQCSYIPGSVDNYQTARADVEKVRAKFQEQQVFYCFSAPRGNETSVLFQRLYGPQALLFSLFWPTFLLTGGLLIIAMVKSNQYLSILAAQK

With `Nc1c(S(=O)(=O)[O-])cc(Nc2ccccc2)c2c1C(=O)c1ccccc1C2=O.[Na+]` [Acid Blue 25, Sodium 1-Amino-9,10-Dioxo-4-(Phenylamino)-9,10-Dihydroanthracene-2-Sulfonate], at BK channels [1] (Table 1, 10 μM compound, inside-out patch, V1/2 control vs drug), the “ΔV1/2 (mV) in 100 nm Ca^2+” value is recorded as −51.0 mV. In addition, at BK channels [1] (inside out patches, concentration not given), the “shifted the V1/2 by” value was −56 mV. Besides, the “amplitude of the outward BK current compared to control” value on BK channels [2] was “enhances the amplitude of the BK current”.

`Nc1c(S(=O)(=O)[O-])cc(Nc2cccc(C(F)(F)F)c2)c2c1C(=O)c1ccccc1C2=O.[Na+]` [SR-5-6, sodium 1-amino-9,10-dioxo-4-(3-(trifluoromethyl)phenylamino)-9,10-dihydroanthracene-2-sulfonate]: the “inward L-type calcium current amplitude” value in the assay with L-type calcium channel is recorded as “reduced in amplitude”.

`Nc1c(S(=O)(=O)[O-])cc(Nc2ccc3c(c2)CCCC3)c2c1C(=O)c1ccccc1C2=O.[Na+]` [SR-5-69, sodium 1-amino-9,10-dioxo-4-((5,6,7,8-tetrahydronaphthalen-2-yl)amino)-9,10-dihydroanthracene-2-sulfonate]: the “shift in the activation V1/2” value at BK channels [1] (30 nM, example patch of FIG. 8A) is given as “very small shift”. Also, the “shifted the V1/2 by” value on BK channels [1] (1 μM) was 110 mV. Also, on BK channels [1] (1 μM, example patch of FIG. 8A), the “V1/2 reached in the presence of the drug” value was “approximately +5 mV”. The “shift of the V1/2” value at BK channels [1] (1 μM, example patch of FIG. 8A, hyperpolarising direction) is greater than −100 mV. Moreover, the “ΔV1/2 (mV) in 100 nm Ca^2+” value at BK channels [1] (Table 2, 1 μM compound, inside-out patch) is reported as −101.6 mV. For the same molecule, the “dose dependence of effects on open probability and ΔV1/2 for BK channels” value at BK channels [1] (increasing concentrations, inside-out patch) is on record as “dose-dependent”. In addition, on BK channels [1], the “effect on BK channel activity, in words (SAR discussion based on V1/2 data)” value (from here on “effect on BK channel activity, in words”) is on record as “dramatic increase in the activity”. Moreover, the EC50 at BK channels [1] (n=4-6 patches containing BK channels, read-out: mean EC50 (Langmuir fit of mean V1/2 against concentration)) is 95 nM.

In the case of `Nc1c(S(=O)(=O)[O-])cc(Nc2ccc3ccccc3c2)c2c1C(=O)c1ccccc1C2=O.[Na+]` [SR-5-72, sodium 1-amino-4-((naphthalen-2-yl)amino)-9,10-dioxo-9,10-dihydroanthracene-2-sulfonate], the “shifted the V1/2 by” value at BK channels [1] (1 μM) amounted to 93 mV. Also, on BK channels [1] (setting [3]), the “ΔV1/2 (mV) in 100 nm Ca^2+” value is on record as −103.8 mV. Further, on BK channels [1], the “effect on BK channel activity, in words” value was “dramatic increase in the activity”.

Consider `CC(C)(C)c1cccc(Nc2cc(S(=O)(=O)[O-])c(N)c3c2C(=O)c2ccccc2C3=O)c1.[Na+]` [SR-5-76, sodium 1-amino-4-((3-(tert-butyl)phenyl)amino)-9,10-dioxo-9,10-dihydroanthracene-2-sulfonate], for which, at BK channels [1] (setting [3]), the “ΔV1/2 (mV) in 100 nm Ca^2+” value is reported as −94.9 mV. Further, at BK channels [1], the “effect on BK channel activity, in words” value was “BK channel agonists”.

As to `Nc1c(C(=O)O)cc(Nc2cccc(C(F)(F)F)c2)c2c1C(=O)c1ccccc1C2=O` [SR-5-88, 1-amino-9,10-dioxo-4-((3-(trifluoromethyl)phenyl)amino)-9,10-dihydroanthracene-2-carboxylic acid], at BK channels [1] (setting [3]), the “ΔV1/2 (mV) in 100 nm Ca^2+” value is given as −98.8 mV. For the same molecule, the “effect on BK channel activity, in words” value at BK channels [1] is “activity was not altered”.

Take `Nc1c(S(=O)(=O)[O-])cc(Nc2cccc(-c3ccccc3)c2)c2c1C(=O)c1ccccc1C2=O.[Na+]` [SR-5-94, sodium 4-([1,1′-biphenyl]-3-ylamino)-1-amino-9,10-dioxo-9,10-dihydroanthracene-2-sulfonate]: the “ΔV1/2 (mV) in 100 nm Ca^2+” value at BK channels [1] (setting [3]) is on record as −60.0 mV.

As to `CCc1ccccc1Nc1cc(S(=O)(=O)[O-])c(N)c2c1C(=O)c1ccccc1C2=O.[Na+]` [SR-5-96, sodium 1-amino-4-((2-ethylphenyl)amino)-9,10-dioxo-9,10-dihydroanthracene-2-sulfonate], the “ΔV1/2 (mV) in 100 nm Ca^2+” value at BK channels [1] (setting [3]) was −84.8 mV. Moreover, the “effect on BK channel activity, in words” value on BK channels [1] is reported as “BK channel agonists”.

Regarding `CCc1ccc(Nc2cc(S(=O)(=O)[O-])c(N)c3c2C(=O)c2ccccc2C3=O)cc1.[Na+]` [SR-5-97, sodium 1-amino-4-((4-ethylphenyl)amino)-9,10-dioxo-9,10-dihydroanthracene-2-sulfonate], at BK channels [1] (setting [3]), the “ΔV1/2 (mV) in 100 nm Ca^2+” value is −78.5 mV. The “effect on BK channel activity, in words” value at BK channels [1] was “BK channel openers”.

For the molecule `CC(C)c1ccccc1Nc1cc(S(=O)(=O)[O-])c(N)c2c1C(=O)c1ccccc1C2=O.[Na+]` [SR-5-98, sodium 1-amino-4((2-isopropylphenyl)amino)-9,10-dioxo-9,10-dihydroanthracene-2-sulfonate], the “ΔV1/2 (mV) in 100 nm Ca^2+” value on BK channels [1] (setting [3]) is −120.0 mV. Further, the “effect on BK channel activity, in words” value at BK channels [1] is “BK channel agonists”.

As for `CC(C)c1ccc(Nc2cc(S(=O)(=O)[O-])c(N)c3c2C(=O)c2ccccc2C3=O)cc1.[Na+]` [SR-5-99, sodium 1-amino-4-((4-isopropylphenyl)amino)-9,10-dioxo-9,10-dihydroanthracene-2-sulfonate], the “ΔV1/2 (mV) in 100 nm Ca^2+” value on BK channels [1] (setting [3]) is on record as −83.4 mV. For the same molecule, at BK channels [1], the “effect on BK channel activity, in words” value is reported as “BK channel openers”.

On to Basilen blue, for which the “BK channel activation, in words” value on BK channel is “moderately potent BK channel activator”.
